Assay results reported in ChEMBL document CHEMBL1147185, “Comparative rates of sialylation by recombinant trans-sialidase and inhibitor properties of synthetic oligosaccharides from Trypanosoma cruzi mucins-containing galactofuranose and galactopyranose” (Bioorg Med Chem, 2007).

Test: Inhibition of Trypanosoma cruzi trans-sialidase after 15 mins

IC50 [µM]	SMILES
850	O=C(COCc1ccccc1)N[C@H]1[C@@H](OCc2ccccc2)O[C@H](CO)[C@@H](O[C@@H]2O[C@@H]([C@H](O)CO)[C@H](O)[C@H]2O[C@@H]2O[C@H](CO)[C@H](O)[C@H](O)[C@H]2O)[C@@H]1O
1260	O=C(CO)N[C@H]1[C@H](OCc2ccccc2)O[C@@H](CO[C@H]2O[C@@H](CO)[C@@H](O)[C@@H](O[C@H]3O[C@@H](CO)[C@@H](O)[C@H](O)[C@@H]3O)[C@@H]2O)[C@H](O[C@@H]2O[C@@H]([C@H](O)CO)[C@H](O)[C@H]2O)[C@H]1O
700	O=C(COCc1ccccc1)N[C@H]1[C@H](OCc2ccccc2)O[C@@H](CO[C@@H]2O[C@H](CO)[C@H](O)[C@H](O[C@H]3O[C@@H](CO)[C@@H](O)[C@@H](O)[C@@H]3O)[C@H]2O[C@@H]2O[C@H](CO)[C@H](O)[C@H](O)[C@H]2O)[C@H](O[C@@H]2O[C@@H]([C@H](O)CO)[C@H](O)[C@H]2O)[C@H]1O
1140	O=C(COCc1ccccc1)N[C@H]1[C@H](OCc2ccccc2)O[C@@H](CO[C@H]2O[C@@H](CO)[C@@H](O)[C@@H](O[C@H]3O[C@@H](CO)[C@@H](O)[C@H](O)[C@@H]3O)[C@@H]2O)[C@H](O[C@@H]2O[C@@H]([C@H](O)CO)[C@H](O)[C@H]2O)[C@H]1O
850	CC(=O)N[C@H]1[C@H](OCc2ccccc2)O[C@@H](CO[C@@H]2O[C@H](CO)[C@H](O)[C@H](O[C@H]3O[C@@H](CO)[C@@H](O)[C@@H](O)[C@@H]3O)[C@H]2O[C@@H]2O[C@H](CO)[C@H](O)[C@H](O)[C@H]2O)[C@H](O[C@@H]2O[C@@H]([C@H](O)CO)[C@H](O)[C@H]2O)[C@H]1O
860	O=C(COCc1ccccc1)N[C@H]1[C@@H](OCc2ccccc2)O[C@H](CO[C@@H]2O[C@H](CO)[C@H](O)[C@H](O)[C@H]2O)[C@@H](O[C@H]2O[C@H]([C@@H](O)CO)[C@@H](O)[C@@H]2O)[C@@H]1O
760	CC(=O)N[C@H]1[C@H](OCc2ccccc2)O[C@@H](CO[C@H]2O[C@@H](CO)[C@@H](O)[C@@H](O[C@H]3O[C@@H](CO)[C@@H](O)[C@H](O)[C@@H]3O)[C@@H]2O)[C@H](O[C@@H]2O[C@@H]([C@H](O)CO)[C@H](O)[C@H]2O)[C@H]1O
610	O=C(CO)N[C@H]1[C@H](OCc2ccccc2)O[C@@H](CO[C@@H]2O[C@H](CO)[C@H](O)[C@H](O[C@H]3O[C@@H](CO)[C@@H](O)[C@@H](O)[C@@H]3O)[C@H]2O[C@@H]2O[C@H](CO)[C@H](O)[C@H](O)[C@H]2O)[C@H](O[C@@H]2O[C@@H]([C@H](O)CO)[C@H](O)[C@H]2O)[C@H]1O

The remaining lines, values behind:

SMILES	IC50 [µM]
CC(=O)N[C@H]1[C@@H](OCc2ccccc2)O[C@H](CO[C@@H]2O[C@H](CO)[C@H](O)[C@H](O)[C@H]2O)[C@@H](O[C@H]2O[C@H]([C@@H](O)CO)[C@@H](O)[C@@H]2O)[C@@H]1O	1330
O=C(CO)N[C@H]1[C@@H](OCc2ccccc2)O[C@H](CO)[C@@H](O[C@@H]2O[C@@H]([C@H](O)CO)[C@H](O)[C@H]2O[C@@H]2O[C@H](CO)[C@H](O)[C@H](O)[C@H]2O)[C@@H]1O	1670
O=C(COCc1ccccc1)N[C@H]1[C@@H](OCc2ccccc2)O[C@H](CO[C@@H]2O[C@H](CO)[C@H](O)[C@H](O)[C@H]2O)[C@@H](O)[C@@H]1O	1110
O=C(CO)N[C@H]1[C@@H](OCc2ccccc2)O[C@H](CO[C@@H]2O[C@H](CO)[C@H](O)[C@H](O)[C@H]2O)[C@@H](O[C@H]2O[C@H]([C@@H](O)CO)[C@@H](O)[C@@H]2O)[C@@H]1O	940
CC(=O)N[C@H]1[C@@H](OCc2ccccc2)O[C@H](CO[C@@H]2O[C@H](CO)[C@H](O)[C@H](O)[C@H]2O)[C@@H](O)[C@@H]1O	2220
O=C(CO)N[C@H]1[C@@H](OCc2ccccc2)O[C@H](CO[C@@H]2O[C@H](CO)[C@H](O)[C@H](O)[C@H]2O)[C@@H](O)[C@@H]1O	980
CC(=O)N[C@H]1[C@@H](OCc2ccccc2)O[C@H](CO)[C@@H](O[C@@H]2O[C@@H]([C@H](O)CO)[C@H](O)[C@H]2O[C@@H]2O[C@H](CO)[C@H](O)[C@H](O)[C@H]2O)[C@@H]1O	4430
OC[C@@H]1O[C@H](O[C@@H]2[C@H](O)[C@H](CO)O[C@H](OCc3ccccc3)[C@H]2O[C@@H]2O[C@H](CO)[C@H](O)[C@H](O)[C@H]2O)[C@@H](O)[C@H](O)[C@@H]1O	1130
